Data set [1] has as its system NIH3T3. Briefly: Antitumor activity against mouse 3T3 cells allografted in athymic nu/nu CD-1 mouse assessed as tumor regression at 25 mg/kg, po for 12 days relative to control. It counts as functional. As to conditions: time 12 day.
Data set [2] in a line: Cmax in CD-1 mouse measured at 25 mg/kg, po for 1 to 24 hrs by HPLC-MS/MS analysis. As to conditions: in vivo, time 1-24 hrs. The data set is classed as ADME, organism-based.
Data set [3] can be described thus: Oral bioavailability in CD-1 mouse measured at 75 mg/kg for 1 to 24 hrs by HPLC-MS/MS analysis. It counts as ADME, organism-based. As to conditions: in vivo, time 1-24 hrs.
Data set [4] is described as follows: AUC (0 to infinity) in CD-1 mouse measured at 5 mg/kg, iv for 1 to 24 hrs by HPLC-MS/MS analysis. Particulars: in vivo, time 1-24 hrs. The data set is classed as ADME, organism-based.
The nature of data set [5]: Cmax in CD-1 mouse measured at 5 mg/kg, po for 1 to 24 hrs by HPLC-MS/MS analysis. The data set is classed as ADME, organism-based. Particulars: in vivo, time 1-24 hrs.
In data set [6] the target is Cytochrome P450 3A4 (Homo sapiens, UniProt P08684). Briefly: Inhibition of CYP3A4 (unknown origin) using luciferin as substrate in presence of NADPH generating system incubated for 20 mins by luminescent method. The data set is classed as ADME.
The nature of data set [7]: AUC (0 to infinity) in Sprague-Dawley rat measured at 5 mg/kg, iv for 1 to 24 hrs by HPLC-MS/MS analysis. It counts as ADME, organism-based. Particulars: in vivo, time 1-24 hrs.
Data set [8] is described as follows: AUC last in Sprague-Dawley rat measured at 12.5 mg/kg, po for 1 to 24 hrs by HPLC-MS/MS analysis. Particulars: in vivo, time 1-24 hrs. The data set is classed as ADME, organism-based.
The nature of data set [9]: Plasma concentration in CD-1 mouse measured at 25 mg/kg, po for 24 hrs by HPLC-MS/MS analysis. It counts as ADME, organism-based.
The nature of data set [10]: Clearance in Sprague-Dawley rat measured at 5 mg/kg, iv for 1 to 24 hrs by HPLC-MS/MS analysis. It counts as ADME, organism-based. As to conditions: in vivo, time 1-24 hrs.
In data set [11] the test system is NIH3T3. The data set can be described thus: Antitumor activity against mouse 3T3 cells allografted in athymic nu/nu CD-1 mouse assessed as tumor growth inhibition at 25 mg/kg, po for 12 days relative to control. It counts as functional. Particulars: NIH3T3, 288 h, time 12 day, read-out: TGI.
Data set [12] can be described thus: Clearance in CD-1 mouse measured at 5 mg/kg, iv for 1 to 24 hrs by HPLC-MS/MS analysis. It counts as ADME, organism-based. Particulars: in vivo, time 1-24 hrs.
The nature of data set [13]: Oral bioavailability in Beagle dog measured at 5 mg/kg for 1 to 24 hrs by HPLC-MS/MS analysis. The data set is classed as ADME, organism-based, Canis lupus familiaris. As to conditions: in vivo, time 1-24 hrs.
Data set [14] is described as follows: Elimination half life in Sprague-Dawley rat measured at 5 mg/kg, iv for 1 to 24 hrs by HPLC-MS/MS analysis. The data set is classed as ADME, organism-based. As to conditions: in vivo, time 1-24 hrs, read-out: beta t1/2 (converted).
Data set [15] has as its target Platelet-derived growth factor receptor (Homo sapiens, UniProt P09619+P16234). The data set can be described thus: Inhibition of PDGFR-alpha/beta (unknown origin) in presence of ATP Km treated at 2 hrs followed by […] ligand addition for 15 mins by ELISA analysis. A general note: In an ELISA, binding on a coated surface is turned into a signal by an enzyme label.

The term Cmax denotes the maximum level reached in the sampled fluid or tissue. By bioavailability is commonly meant dose-corrected exposure relative to a reference, in per cent. Low values mean poor availability, high ones good availability. By AUC(0-inf) is commonly meant total exposure, with the tail of the curve extrapolated. The low end stands for less exposure, the high end for more exposure. A word on the IC50: it is the midpoint of a concentration-inhibition curve. For orientation: AUC(0-t) means the area under the concentration-time curve up to a stated or last time point. Read a low AUC(0-t) as less exposure. As usually defined, the clearance is the rate of elimination divided by the concentration. A lower clearance goes with a low capacity for elimination.

Sequence of Cytochrome P450 3A4 (P08684 whole entry): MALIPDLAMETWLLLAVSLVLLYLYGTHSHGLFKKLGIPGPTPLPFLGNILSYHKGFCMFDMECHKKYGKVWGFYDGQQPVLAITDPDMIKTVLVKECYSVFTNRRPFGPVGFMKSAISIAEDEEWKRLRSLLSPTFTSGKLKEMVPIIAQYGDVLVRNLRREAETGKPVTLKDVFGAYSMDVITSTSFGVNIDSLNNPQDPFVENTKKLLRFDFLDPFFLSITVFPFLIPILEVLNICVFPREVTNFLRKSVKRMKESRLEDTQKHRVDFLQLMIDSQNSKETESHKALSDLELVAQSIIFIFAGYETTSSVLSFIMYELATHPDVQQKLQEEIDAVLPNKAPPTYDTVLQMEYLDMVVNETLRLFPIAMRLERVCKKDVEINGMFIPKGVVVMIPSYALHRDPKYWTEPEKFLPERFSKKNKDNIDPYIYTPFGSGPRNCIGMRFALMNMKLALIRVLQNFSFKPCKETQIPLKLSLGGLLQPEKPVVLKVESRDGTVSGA

Turning to `C[C@]1(O)C[C@@H](c2nc(-c3ccc4ccc(-c5ccccc5)nc4c3)c3c(N)nccn32)C1` [LINSITINIB], the Activity in data set [1] stood at 0%. Further, the Cmax in data set [2] was determined as 16 µM; in [5] it was 3.42 µM. For the same compound, the bioavailability in [3] amounted to 84%; in [13], 64%. Besides, the figures for the AUC(0-inf) in data set [4] and in data set [7] were 6950 ng·h/mL and 23100 ng·h/mL, respectively. Also, the IC50 in data set [6] and in data set [15] was above 10 µM in each case. This compound also yielded an AUC(0-t) in data set [8] of 42800 ng·h/mL. In addition, the concentration at 24 h in [9] was 0.02 µM. Besides, the clearance in [10] stood at 4 mL/min/kg; in data set [12], 12 mL/min/kg. Moreover, the inhibition in vivo at 25 mg/kg in data set [11] was 60%. In addition, the half-life in data set [14] was 2.64 h.

Source of the values: ChEMBL document CHEMBL5661980, “Discovery of OSI-906: a selective and orally efficacious dual inhibitor of the IGF-1 receptor and insulin receptor” (Future Med Chem, 2009).
